Values of other authors as cited in US20200113824A1, “DISPENSING CAP CONTAINING A SOLUBILISATE OF A […] ACTIVE AGENT OR DIETARY SUPPLEMENT” (priority 2017, published 2020).

Experiments:
human CYP3A4 = human CYP3A4 (Homo sapiens, UniProt P08684)
P-glycoprotein = P-glycoprotein (Homo sapiens, UniProt P08183)
murine gut microbiota = conditions: promoting obesity and inflammatory bowel diseases

human CYP3A4, sequence (P08684 whole entry): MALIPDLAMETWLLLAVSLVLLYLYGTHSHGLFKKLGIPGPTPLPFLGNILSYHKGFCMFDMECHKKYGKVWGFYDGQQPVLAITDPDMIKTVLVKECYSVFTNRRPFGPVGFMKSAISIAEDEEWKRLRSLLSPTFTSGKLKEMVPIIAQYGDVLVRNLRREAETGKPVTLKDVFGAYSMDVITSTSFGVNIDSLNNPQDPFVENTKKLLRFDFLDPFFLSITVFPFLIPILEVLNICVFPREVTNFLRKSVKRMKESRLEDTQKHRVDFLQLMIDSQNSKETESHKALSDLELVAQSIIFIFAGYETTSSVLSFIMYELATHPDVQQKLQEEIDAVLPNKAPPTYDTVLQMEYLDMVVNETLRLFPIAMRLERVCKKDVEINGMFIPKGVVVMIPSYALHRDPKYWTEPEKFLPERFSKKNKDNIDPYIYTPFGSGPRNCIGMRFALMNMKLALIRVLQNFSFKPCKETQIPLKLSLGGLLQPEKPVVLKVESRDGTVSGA
P-glycoprotein, sequence (P08183 whole entry): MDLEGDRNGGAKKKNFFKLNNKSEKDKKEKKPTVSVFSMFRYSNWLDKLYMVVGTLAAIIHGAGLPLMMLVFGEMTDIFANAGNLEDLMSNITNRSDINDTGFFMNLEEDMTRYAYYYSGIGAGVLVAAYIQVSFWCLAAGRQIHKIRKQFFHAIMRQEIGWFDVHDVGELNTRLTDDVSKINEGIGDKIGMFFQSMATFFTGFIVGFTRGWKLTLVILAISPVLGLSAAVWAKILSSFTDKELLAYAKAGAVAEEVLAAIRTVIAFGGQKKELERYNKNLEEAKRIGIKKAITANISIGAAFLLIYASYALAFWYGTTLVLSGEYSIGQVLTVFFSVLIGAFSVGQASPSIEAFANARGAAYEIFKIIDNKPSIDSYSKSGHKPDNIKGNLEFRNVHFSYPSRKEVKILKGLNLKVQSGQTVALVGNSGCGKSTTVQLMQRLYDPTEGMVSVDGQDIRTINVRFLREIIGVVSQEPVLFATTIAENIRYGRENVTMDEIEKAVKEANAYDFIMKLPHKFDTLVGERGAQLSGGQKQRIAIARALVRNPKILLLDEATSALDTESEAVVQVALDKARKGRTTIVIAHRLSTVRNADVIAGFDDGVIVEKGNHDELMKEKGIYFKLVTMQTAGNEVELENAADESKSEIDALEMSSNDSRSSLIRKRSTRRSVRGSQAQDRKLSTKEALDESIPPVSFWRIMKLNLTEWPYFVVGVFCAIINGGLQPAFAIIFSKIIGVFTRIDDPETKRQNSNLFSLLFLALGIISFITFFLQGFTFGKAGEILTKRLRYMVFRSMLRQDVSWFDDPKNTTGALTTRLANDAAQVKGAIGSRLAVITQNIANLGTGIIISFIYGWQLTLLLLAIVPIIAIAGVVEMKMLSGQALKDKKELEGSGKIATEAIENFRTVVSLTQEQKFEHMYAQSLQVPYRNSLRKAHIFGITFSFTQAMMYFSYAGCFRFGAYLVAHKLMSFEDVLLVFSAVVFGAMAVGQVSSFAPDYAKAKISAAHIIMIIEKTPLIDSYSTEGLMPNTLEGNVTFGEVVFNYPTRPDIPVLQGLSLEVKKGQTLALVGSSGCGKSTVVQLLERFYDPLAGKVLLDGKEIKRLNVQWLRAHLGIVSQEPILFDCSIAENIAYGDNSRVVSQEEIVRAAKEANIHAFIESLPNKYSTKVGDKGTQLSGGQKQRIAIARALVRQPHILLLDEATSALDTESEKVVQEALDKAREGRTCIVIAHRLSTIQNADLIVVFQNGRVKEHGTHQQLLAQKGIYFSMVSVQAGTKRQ

Compound	inhibition of human CYP3A4 (human CYP3A4)	inhibition of P-glycoprotein (P-glycoprotein)	effects on murine gut microbiota (murine gut microbiota)
O=C(C=CC=Cc1ccc2c(c1)OCO2)N1CCCCC1 [Piperine, 1-[5-(1,3-benzodioxol-5-yl)-1-oxo-2,4-pentadienyl]piperidine]	inhibit	inhibit	–
Polysorbate-80	–	–	detrimental effects
